Consider 18 molecules from ChEMBL document CHEMBL5352468, “Rational design, synthesis, and pharmacological evaluation of a cohort of novel beta-adrenergic receptors ligands enables an assessment of structure-activity relationships” (Eur J Med Chem, 2023).

Common to all, as to format: functional, cell-based
The target in assay [1] is T1, Beta-1 adrenergic receptor (Homo sapiens, UniProt P08588). In words: Agonist activity at human beta1-adrenergic receptor expressed in CHO-K1 cells co-expressing CRE-SPAP reporter gene assessed as CRE-SPAP production measured after 5 hrs incubation.
Assay [2] deals with T2, Beta-2 adrenergic receptor (Homo sapiens, UniProt P07550). Nature of the assay: Agonist activity at human beta2-adrenergic receptor expressed in CHO-K1 cells co-expressing CRE-SPAP reporter gene assessed as CRE-SPAP production measured after 5 hrs incubation.
For assay [3], the target named is T3, Beta-3 adrenergic receptor (Homo sapiens, UniProt P13945). In words: Agonist activity at human beta3-adrenergic receptor expressed in CHO-K1 cells co-expressing CRE-SPAP reporter gene assessed as CRE-SPAP production measured after 5 hrs incubation. (In a reporter assay the amount or activity of a reporter protein is the signal.)
Assay [4] has as its target T1, Beta-1 adrenergic receptor. In words: Antagonist activity at human beta1-adrenergic receptor expressed in CHO-K1 cells co-expressing CRE-SPAP reporter gene assessed as inhibition of fenoterol-induced CRE-SPAP production by measuring rightward shift of the fenoterol concentration response curve measured after 5 hrs incubation.
Assay [5] concerns the target T2, Beta-2 adrenergic receptor. Nature of the assay: Antagonist activity at human beta2-adrenergic receptor expressed in CHO-K1 cells co-expressing CRE-SPAP reporter gene assessed as inhibition of fenoterol-induced CRE-SPAP production by measuring rightward shift of the fenoterol concentration response curve measured after 5 hrs incubation.
For assay [6], the target named is T3, Beta-3 adrenergic receptor. In words: Antagonist activity at human beta3-adrenergic receptor expressed in CHO-K1 cells co-expressing CRE-SPAP reporter gene assessed as inhibition of fenoterol-induced CRE-SPAP production by measuring rightward shift of the fenoterol concentration response curve measured after 5 hrs incubation.

T1 sequence (P08588 whole entry): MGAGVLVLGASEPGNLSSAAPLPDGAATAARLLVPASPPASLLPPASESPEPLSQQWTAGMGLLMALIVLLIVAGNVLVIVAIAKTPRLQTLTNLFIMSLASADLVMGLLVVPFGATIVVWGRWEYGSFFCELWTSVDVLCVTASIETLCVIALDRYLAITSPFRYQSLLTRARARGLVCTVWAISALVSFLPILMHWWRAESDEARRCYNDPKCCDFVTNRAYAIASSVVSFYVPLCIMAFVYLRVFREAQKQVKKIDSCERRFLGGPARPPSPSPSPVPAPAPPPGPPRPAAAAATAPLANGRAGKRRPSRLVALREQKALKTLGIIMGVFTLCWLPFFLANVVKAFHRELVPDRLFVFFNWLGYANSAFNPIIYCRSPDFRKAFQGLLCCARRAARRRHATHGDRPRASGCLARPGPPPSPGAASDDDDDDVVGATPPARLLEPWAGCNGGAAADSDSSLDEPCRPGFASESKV
T3 sequence (P13945 whole entry): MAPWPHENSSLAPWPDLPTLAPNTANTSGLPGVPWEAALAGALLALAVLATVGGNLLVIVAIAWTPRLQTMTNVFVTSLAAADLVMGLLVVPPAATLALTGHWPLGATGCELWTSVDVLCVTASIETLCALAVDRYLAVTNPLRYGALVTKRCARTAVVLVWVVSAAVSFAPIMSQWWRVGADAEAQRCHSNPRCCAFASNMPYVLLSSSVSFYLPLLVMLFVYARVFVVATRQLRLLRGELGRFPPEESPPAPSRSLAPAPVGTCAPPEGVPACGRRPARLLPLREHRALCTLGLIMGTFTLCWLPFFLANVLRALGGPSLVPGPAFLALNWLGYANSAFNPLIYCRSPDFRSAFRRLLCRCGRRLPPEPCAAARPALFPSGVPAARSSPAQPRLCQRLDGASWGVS
T2 sequence (P07550 whole entry): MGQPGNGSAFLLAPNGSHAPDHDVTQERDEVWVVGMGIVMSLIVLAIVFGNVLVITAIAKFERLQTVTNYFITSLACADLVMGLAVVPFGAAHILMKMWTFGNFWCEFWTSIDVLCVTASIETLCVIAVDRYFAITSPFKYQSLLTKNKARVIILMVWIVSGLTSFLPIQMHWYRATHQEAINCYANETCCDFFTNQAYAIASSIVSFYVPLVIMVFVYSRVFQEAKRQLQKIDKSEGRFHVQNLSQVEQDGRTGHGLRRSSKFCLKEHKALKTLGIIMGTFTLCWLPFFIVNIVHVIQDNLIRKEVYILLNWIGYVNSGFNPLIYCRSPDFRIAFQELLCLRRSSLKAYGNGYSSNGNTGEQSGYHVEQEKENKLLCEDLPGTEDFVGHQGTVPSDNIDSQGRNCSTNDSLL

In the case of `O[C@@H](CNCC1COc2ccccc2O1)COc1cccc2cnccc12` (stereo partly drawn), the EC50 is 74.1 nM in assay [1], 10 µM in assay [2] (read-out: EC50) and 10000 nM in assay [3] (read-out: EC50). In addition, the Kd in assay [4] (read-out: pKd (converted)) was 102 nM; in assay [5] (read-out: pKd (converted)) it was 107 nM; in assay [6] (read-out: pKd (converted)), 1.35 µM.

Take `COC(=O)[C@H](N)Cc1ccc(OC[C@@H](O)CNCC2COc3ccccc3O2)cc1` (stereo partly drawn): in assay [6] (read-out: Kd), the Kd was over 10 µM.

As for `COc1ccc(S(=O)(=O)NCCCCCCNC[C@H](O)COc2ccc3ccc(=O)oc3c2)cc1`, the Kd in assay [6] (read-out: Kd) was over 10 µM.

For the molecule `CC(=O)Nc1ccc(CCNC[C@H](O)COc2ccc3ccc(=O)oc3c2)cc1`, the Kd in assay [5] (read-out: Kd) was over 10000 nM; in assay [6] (read-out: Kd), over 10 µM.

As to `CS(=O)(=O)c1ccc(CCNC[C@H](O)COc2ccc3ccc(=O)oc3c2)cc1`, the Kd in assay [5] (read-out: Kd) was over 10000 nM; in assay [6] (read-out: Kd) it was over 10 µM.

Turning to `CC1(C)CC(=O)c2ccc(OC[C@@H](O)CNCCCN3C(=O)c4ccccc4C3=O)cc2O1`, the Kd in assay [4] (read-out: Kd) is over 10000 nM.

For the molecule `O=c1ccc2ccc(OC[C@@H](O)CNCCc3ccc4c(c3)OCO4)cc2o1`, the Kd in assay [4] (read-out: pKd (converted)) was 5620 nM; in assay [6] (read-out: Kd) it was over 10 µM.

For the molecule `O[C@@H](CNCC1COc2ccccc2O1)COc1ccnc2ccccc12` (stereo partly drawn), the Kd in assay [4] (read-out: pKd (converted)) was 6030 nM.

On to `CCc1ccccc1OC[C@@H](O)CNCCC(c1ccccc1)c1ccccc1`, for which, in assay [1], the EC50 was 309 nM. In addition, the Kd in assay [4] (read-out: pKd (converted)) was 135 nM.

In the case of `O=C1COc2cc(OC[C@@H](O)CNCC3COc4ccccc4O3)ccc21` (stereo partly drawn), in assay [5] (read-out: pKd (converted)), the Kd is 3630 nM.

In the case of `CC1(C)CC(=O)c2ccc(OC[C@H](O)CNCCCN3C(=O)c4ccccc4C3=O)cc2O1`, the Kd in assay [4] (read-out: Kd) was over 10000 nM.

`COc1ccc(S(=O)(=O)NCCCCNC[C@H](O)COc2ccc3c(c2)OC(C)(C)CC3=O)cc1`: the Kd is over 10000 nM in assay [4] (read-out: Kd) and over 10 µM in assay [6] (read-out: Kd).

For the molecule `CCc1ccccc1OC[C@@H](O)CN[C@H]1CCCc2ccccc21`, the results for the EC50 in assay [2] (read-out: pEC50 (converted)) and in assay [3] (read-out: pEC50 (converted)) were 0.00871 µM and 191 nM, respectively. The Kd was 3.8 nM in assay [5] (read-out: pKd (converted)) and 0.0692 µM in assay [6] (read-out: pKd (converted)).

On to `O=c1ccc2ccc(OC[C@@H](O)CNCC3COc4ccccc4O3)cc2o1` (stereo partly drawn), for which, in assay [5] (read-out: pKd (converted)), the Kd was 6610 nM.

Consider `CC1(C)CC(=O)c2ccc(OC[C@H](O)CNCCCc3ccccc3)cc2O1`, for which the Kd in assay [6] (read-out: Kd) is over 10 µM.

As for `CC(=O)NCc1cccc(OC[C@@H](O)CNCCc2ccc(NS(=O)(=O)c3ccccc3)cc2)c1`, the EC50 was 380 nM in assay [1], 10 µM in assay [2] (read-out: EC50) and 4.47 nM in assay [3] (read-out: pEC50 (converted)). Further, the Kd in assay [4] (read-out: pKd (converted)) is 339 nM; in assay [5] (read-out: pKd (converted)), 74.1 nM; in assay [6] (read-out: pKd (converted)) it was 0.00676 µM.

Turning to `O[C@@H](CNCC1COc2ccccc2O1)COc1ccc2c(c1)OCO2` (stereo partly drawn), the EC50 in assay [1] is 316 nM. The figures for the Kd in assay [4] (read-out: pKd (converted)) and in assay [5] (read-out: pKd (converted)) were 1580 nM and 1550 nM, respectively.

On to `CC1(C)CC(=O)c2ccc(OC[C@@H](O)CNCCCc3ccccc3)cc2O1`, for which the Kd in assay [6] (read-out: Kd) is over 10 µM.
